Data as given in patent US8734775B2, “Chemokine derived peptides that bind with chemokine receptor CXCR3 and uses for chronic wound and angiogenesis inhibition treatments” (University of Pittsburgh, priority 2011, dated 2014).

Experiments:
[1] = biological target: T1, CXCR3 on HMEC-1 cells (Homo sapiens, UniProt P49682); assay: Flow cytometry binding of biotin-tagged peptide to HMEC-1 cells
T1 construct: HMEC-1 cells express CXCR3; endogenous in cells; host or cells: HMEC-1 (human dermal microvascular endothelial cells)
T1 sequence (P49682 1-415 isoform P49682-2): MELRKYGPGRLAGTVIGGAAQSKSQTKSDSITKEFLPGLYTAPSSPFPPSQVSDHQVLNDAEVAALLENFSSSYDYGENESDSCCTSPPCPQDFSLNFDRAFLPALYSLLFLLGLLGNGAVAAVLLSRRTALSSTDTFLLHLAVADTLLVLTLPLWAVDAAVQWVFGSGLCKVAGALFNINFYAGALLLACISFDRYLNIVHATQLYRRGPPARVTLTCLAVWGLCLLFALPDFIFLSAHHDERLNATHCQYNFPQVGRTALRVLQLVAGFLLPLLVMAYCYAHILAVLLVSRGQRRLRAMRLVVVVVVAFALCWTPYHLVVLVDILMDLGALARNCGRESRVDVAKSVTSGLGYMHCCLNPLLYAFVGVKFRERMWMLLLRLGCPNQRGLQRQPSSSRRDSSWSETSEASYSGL
Experimental: In the various experiments described below, unless otherwise noted, Biotin labeling was accomplished according to the following procedure. Sulfo-NHS-LC-Biotin (Thermo Scientific 21327) was prepared to result in a 10 mM solution of Biotin. IP-10, IP-10dp or anti-CXCR3 neutralizing antibody were dissolved in PBS according to result in a 20-fold molar excess of biotin reagent to give a 4-6 biotin groups per peptide molecule. The biotin reagent and IP-10 and/or IP-10dp was mixed and incubated on ice for 2 hours. Appropriate controls were used to determine the levels of biotin incorporation. HMEC-1 cells were washed in ice-cold PBS (pH 8) to remove amine-containing media and proteins. Cells were suspended and Sulfo-NHS-LC-Biotin label peptide was added. Mixture was incubated at 4° C. to reduce active internalization of the biotin reagent for 30 minutes. Cells were then washed three times in PBS+100 mM glycine to quench and remove excess biotin. Cells were then incubated with streptavidin conjugated with FITC and analyzed on a BD FACSCalbur flow cytometer.
To determine whether IP-10dp binds to CXCR3 on human dermal microvascular endothelial cells, we analyzed the ability of Sulfo-LC-Biotin tagged IP-10 and IP-10dp to bind to H MEC-1 cells using flow cytometery. […] The cells were then incubated with FITC conjugated with streptavidin, and then analyzed on a BD FACSCalbur flow cytometer. […]

[2] = test system: HMEC-1 cells; assay: Tube dissociation assay on GFR-Matrigel; type: cell-based, human; conditions: IP-10dp 10 μM
Experimental: For this tube dissociation assay, HMEC-1 cells were first re-suspended in 1% FBS MCDB131 media containing VEGF (75 ng/ml) and incubated on GFR-Matrigel for 24 hrs at 37° C. to allow tube formation (the average result reflected labeled “24 VEGF . . . ” in FIG. 5B). The media was removed and replaced with combinations of VEGF (75 ng/ml), IP-10 (300 ng/ml), or IP-10dp (10 μM) then incubated for another 24 hours. After 48 hours, tubes were still present in the controls treated only with VEGF (labeled 48 hr VEGF in FIG. 5B).
The cells cultures were imaged to assess tube formation using similar procedures to that described above for Experiment 3. […]
Again, quantification of the endothelial tube area for the various cell cultures was determined using MetaMorph, and the data reported in the graph are of at least N=6 and normalized to no treatment (average±SEM), with *P<0.05.

[3] = test system: m-calpain in HMEC-1 cells; assay: Calpain activity by Boc-LM-CMAC cleavage; type: cell-based, human; conditions: IP-10dp 10 μM, VEGF 75 ng/ml, BAPTA/AM pre-incubation
Source text: Prior research has also shown that in endothelial cells, the CXCR3-activation of PKA inhibits motility secondary to inhibitory phosphorylation of m-calpain (also known as […]). VEGF induces calpain activity in endothelial cells, and […] (also known as […]) is activated, at least in part, by ERK phosphorylation on serine 50 and in other cells μ-calpain is activated secondary to a calcium flux. In this experiment, the IP-10dp affect on m-calpain is studied by using the membrane permeable synthetic calpain substrate Boc-LM-CMAC. Since the pre-fluorescent substrate Boc-LM-CMAC can be cleaved by both m- and μ-calpain, this experiment used BAPTA/AM, a membrane permeable calcium chelator, to distinguish between m- and μ-calpain activation in cells as this blocks activation of μ-calpain but not m-calpain.
In order to establish whether the IP-10dp inhibition of motility involves this above-described blockade of calpain activation, 8 well chamber slides were coated with 0.1% gelatin for 24 hours at 4° C. The gelatin was removed and HMEC-1 cells were plated at 12,000 cells/well then incubated in 10% FBS-EBM-EC media for 24 hrs. The media was removed and the cells were further incubated for 12 hrs with 0.5% dialyzed FBS-EBM media. All cell cultures were then incubated with either BAPTA AM ([…]), or Calpain inhibitor I (CI-1, […]) at 37° C. for 30 minutes. […]

binding to HMEC-1 cells ([1]; Sulfo-LC-Biotin tagged peptide, streptavidin-FITC, flow cytometry): binds to human endothelial cells | fluorescence intensity of binding to CXCR3 on HMEC-1 cells compared with full length IP-10 ([1]; relative to control, biotin-tagged): slightly lower fluorescence intensity
Sequence: PESKAIKNLLKAVSKEMSKRSP (IP-10dp; listed as Homo sapiens) [synthetic fragment of IP-10 comprising residues 78-98, the C-terminal α-helical domain]
endothelial cords following treatment ([2]; 24-48 hrs): significant decrease in endothelial cords | dissociation of newly formed tubes ([2]; treatment 24-48 hrs, presence and absence of VEGF, IP-10 300 ng/ml): induce dissociation of newly formed tubes | VEGF mediated m-calpain activity [3]: inhibits VEGF mediated m-calpain activity
